Test results: PubChem BioAssay (NCI)
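Cultured in 96-well plates, cells were exposed to test compound for 48 hours across five concentrations. Here, GI50 denotes the concentration required for 50% inhibition of growth. TGI is the concentration that stops growth completely.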

Columns and labels:
Experiment in all cases: NCI-60 cell line screen, 48 h
LOX IMVI melanoma = test system: LOX IMVI melanoma
ACHN renal = test system: ACHN renal
MALME-3M melanoma = test system: MALME-3M melanoma
IGROV1 ovarian = test system: IGROV1 ovarian
HOP-92 NSCLC = test system: HOP-92 NSCLC
MDA-MB-231 breast = test system: MDA-MB-231 breast
MCF7 breast = test system: MCF7 breast
CAKI-1 renal = test system: CAKI-1 renal
M14 melanoma = test system: M14 melanoma
SNB-19 CNS = test system: SNB-19 CNS
A498 renal = test system: A498 renal
OVCAR-4 ovarian = test system: OVCAR-4 ovarian
SK-MEL-2 melanoma = test system: SK-MEL-2 melanoma
SNB-75 CNS = test system: SNB-75 CNS
PC-3 prostate = test system: PC-3 prostate
HCT-15 colon = test system: HCT-15 colon
T-47D breast = test system: T-47D breast
OVCAR-5 ovarian = test system: OVCAR-5 ovarian
SW-620 colon = test system: SW-620 colon
SK-OV-3 ovarian = test system: SK-OV-3 ovarian
SF-268 CNS = test system: SF-268 CNS
SK-MEL-5 melanoma = test system: SK-MEL-5 melanoma
UACC-62 melanoma = test system: UACC-62 melanoma
RPMI-8226 leukemia = test system: RPMI-8226 leukemia
OVCAR-3 ovarian = test system: OVCAR-3 ovarian
UACC-257 melanoma = test system: UACC-257 melanoma
KM12 colon = test system: KM12 colon
MDA-MB-435 = test system: MDA-MB-435
UO-31 renal = test system: UO-31 renal
HS 578T breast = test system: HS 578T breast
HCC-2998 colon = test system: HCC-2998 colon
HL-60(TB) leukemia = test system: HL-60(TB) leukemia
NCI-H23 lung = test system: NCI-H23 lung
BT-549 breast = test system: BT-549 breast
OVCAR-8 ovarian = test system: OVCAR-8 ovarian
CCRF-CEM leukemia = test system: CCRF-CEM leukemia
SR leukemia = test system: SR leukemia
NCI-H522 lung = test system: NCI-H522 lung
SF-539 CNS = test system: SF-539 CNS
NCI/ADR-RES ovarian = test system: NCI/ADR-RES ovarian
MOLT-4 leukemia = test system: MOLT-4 leukemia
K-562 leukemia = test system: K-562 leukemia
COLO 205 colon = test system: COLO 205 colon
A549 NSCLC = test system: A549 NSCLC
SN12C renal = test system: SN12C renal
NCI-H226 lung = test system: NCI-H226 lung
DU-145 prostate = test system: DU-145 prostate
TK-10 renal = test system: TK-10 renal
EKVX NSCLC = test system: EKVX NSCLC
NCI-H460 lung = test system: NCI-H460 lung
HT29 colon = test system: HT29 colon
RXF 393 renal = test system: RXF 393 renal
HOP-62 NSCLC = test system: HOP-62 NSCLC
HCT-116 colon = test system: HCT-116 colon
SF-295 CNS = test system: SF-295 CNS
U251 CNS = test system: U251 CNS
786-0 renal = test system: 786-0 renal
SK-MEL-28 melanoma = test system: SK-MEL-28 melanoma

SMILES: N#Cc1c(N)nc(N)nc1N[C@H](c1nc2c(F)ccc(Cl)c2c(=O)n1-c1cccnc1)C1CC1
- GI50 (LOX IMVI melanoma): 5.51 µM
- TGI (LOX IMVI melanoma): 20.1 µM
- GI50 (ACHN renal): 3.31 µM
- TGI (ACHN renal): > 100 µM
- GI50 (MALME-3M melanoma): 10.9 µM
- TGI (MALME-3M melanoma): > 100 µM
- GI50 (IGROV1 ovarian): 1.22 µM
- TGI (IGROV1 ovarian): 5.31 µM
- GI50 (HOP-92 NSCLC): 0.549 µM
- TGI (HOP-92 NSCLC): 7.59 µM
- GI50 (MDA-MB-231 breast): 11.8 µM
- TGI (MDA-MB-231 breast): 36.3 µM
- GI50 (MCF7 breast): 2.04 µM
- TGI (MCF7 breast): > 100 µM
- GI50 (CAKI-1 renal): 1.69 µM
- TGI (CAKI-1 renal): 26.9 µM
- GI50 (M14 melanoma): 13.6 µM
- TGI (M14 melanoma): 41.8 µM
- GI50 (SNB-19 CNS): 13 µM
- TGI (SNB-19 CNS): 28.6 µM
- GI50 (A498 renal): 0.249 µM
- TGI (A498 renal): 1.55 µM
- GI50 (OVCAR-4 ovarian): 19.4 µM
- TGI (OVCAR-4 ovarian): 87.1 µM
- GI50 (SK-MEL-2 melanoma): 23.3 µM
- TGI (SK-MEL-2 melanoma): > 100 µM
- GI50 (SNB-75 CNS): 0.171 µM
- TGI (SNB-75 CNS): 6.9 µM
- GI50 (PC-3 prostate): 2.3 µM
- TGI (PC-3 prostate): 29.3 µM
- GI50 (HCT-15 colon): 14.9 µM
- TGI (HCT-15 colon): 56.7 µM
- GI50 (T-47D breast): 1.19 µM
- TGI (T-47D breast): 7.96 µM
- GI50 (OVCAR-5 ovarian): 2.72 µM
- TGI (OVCAR-5 ovarian): 45.7 µM
- GI50 (SW-620 colon): 11.1 µM
- TGI (SW-620 colon): > 100 µM
- GI50 (SK-OV-3 ovarian): 2.41 µM
- TGI (SK-OV-3 ovarian): 11.4 µM
- GI50 (SF-268 CNS): 12.3 µM
- TGI (SF-268 CNS): > 100 µM
- GI50 (SK-MEL-5 melanoma): 8.33 µM
- TGI (SK-MEL-5 melanoma): 21.9 µM
- GI50 (UACC-62 melanoma): 1.6 µM
- TGI (UACC-62 melanoma): > 100 µM
- GI50 (RPMI-8226 leukemia): 19 µM
- TGI (RPMI-8226 leukemia): 46.4 µM
- GI50 (OVCAR-3 ovarian): 1.47 µM
- TGI (OVCAR-3 ovarian): 16.3 µM
- GI50 (UACC-257 melanoma): 8.18 µM
- TGI (UACC-257 melanoma): > 100 µM
- GI50 (KM12 colon): 14.4 µM
- TGI (KM12 colon): 34.5 µM
- GI50 (MDA-MB-435): 13 µM
- TGI (MDA-MB-435): 34.4 µM
- GI50 (UO-31 renal): 2.34 µM
- TGI (UO-31 renal): 21.1 µM
- GI50 (HS 578T breast): 2.53 µM
- TGI (HS 578T breast): 57.7 µM
- GI50 (HCC-2998 colon): 12.7 µM
- TGI (HCC-2998 colon): 28.4 µM
- GI50 (HL-60(TB) leukemia): 2.28 µM
- TGI (HL-60(TB) leukemia): 82.8 µM
- GI50 (NCI-H23 lung): 21.8 µM
- TGI (NCI-H23 lung): > 100 µM
- GI50 (BT-549 breast): 0.761 µM
- TGI (BT-549 breast): 17.3 µM
- GI50 (OVCAR-8 ovarian): 15.9 µM
- TGI (OVCAR-8 ovarian): 44.3 µM
- GI50 (CCRF-CEM leukemia): 7.35 µM
- TGI (CCRF-CEM leukemia): 95.1 µM
- GI50 (SR leukemia): 13.4 µM
- TGI (SR leukemia): 52.5 µM
- GI50 (NCI-H522 lung): 34.2 µM
- TGI (NCI-H522 lung): > 100 µM
- GI50 (SF-539 CNS): 3.83 µM
- TGI (SF-539 CNS): 21 µM
- GI50 (NCI/ADR-RES ovarian): 28.5 µM
- TGI (NCI/ADR-RES ovarian): > 100 µM
- GI50 (MOLT-4 leukemia): 3.33 µM
- TGI (MOLT-4 leukemia): 28.8 µM
- GI50 (K-562 leukemia): 31.8 µM
- TGI (K-562 leukemia): > 100 µM
- GI50 (COLO 205 colon): 8.74 µM
- TGI (COLO 205 colon): 25.8 µM
- GI50 (A549 NSCLC): 6.22 µM
- TGI (A549 NSCLC): 21.2 µM
- GI50 (SN12C renal): 10.8 µM
- TGI (SN12C renal): > 100 µM
- GI50 (NCI-H226 lung): 15.5 µM
- TGI (NCI-H226 lung): > 100 µM
- GI50 (DU-145 prostate): 11 µM
- TGI (DU-145 prostate): > 100 µM
- GI50 (TK-10 renal): 1.92 µM
- TGI (TK-10 renal): 15.6 µM
- GI50 (EKVX NSCLC): 1.88 µM
- TGI (EKVX NSCLC): 37.2 µM
- GI50 (NCI-H460 lung): 4.95 µM
- TGI (NCI-H460 lung): > 100 µM
- GI50 (HT29 colon): 4.53 µM
- TGI (HT29 colon): 25.8 µM
- GI50 (RXF 393 renal): 0.32 µM
- TGI (RXF 393 renal): 3.46 µM
- GI50 (HOP-62 NSCLC): 3.62 µM
- TGI (HOP-62 NSCLC): > 100 µM
- GI50 (HCT-116 colon): 11.6 µM
- TGI (HCT-116 colon): 27.3 µM
- GI50 (SF-295 CNS): 1.18 µM
- TGI (SF-295 CNS): 13.2 µM
- GI50 (U251 CNS): 14.7 µM
- TGI (U251 CNS): 69.2 µM
- GI50 (786-0 renal): 0.363 µM
- TGI (786-0 renal): 14.5 µM
- GI50 (SK-MEL-28 melanoma): 7.23 µM
- TGI (SK-MEL-28 melanoma): > 100 µM
